Measurements from ChEMBL document CHEMBL5625254, “Design, synthesis and evaluation of ursodeoxycholic acid-cinnamic acid hybrids as potential anti-inflammatory agents by inhibiting Akt/NF-κB and MAPK signaling pathways” (Eur J Med Chem, 2023).
Calls of active or inactive are those of the source. The rule behind the calls is not given here.

What was measured:
[1] = system: RAW264.7; assay: Anti-inflammatory activity in mouse RAW264.7 cells assessed as decrease in LPS-induced JNK phosphorylation at 5 to 20 uM incubated for 24 hrs by Western blot analysis; format: functional, cell-based; conditions: dose 5-20 µM
[2] = system: RAW264.7; assay: Cytotoxicity against mouse RAW264.7 cells assessed as cell viability at 20 uM incubated for 24 hrs by CCK8 assay; format: toxicity, cell-based; conditions: raw264.7, 24 h
[3] = system: RAW264.7; assay: Anti-inflammatory activity in mouse RAW264.7 cells assessed as decrease in LPS-induced TNF-alpha level incubated for 24 hrs by ELISA; format: functional, cell-based; conditions: dose 5-20 µM
[4] = system: RAW264.7; assay: Anti-inflammatory activity in mouse RAW264.7 cells assessed as inhibition of LPS-induced NO production incubated for 24 hrs; format: functional, cell-based
[5] = system: RAW264.7; assay: Anti-inflammatory activity in mouse RAW264.7 cells assessed as decrease in LPS-induced ERK phosphorylation at 5 to 20 uM incubated for 24 hrs by Western blot analysis; format: functional, cell-based; conditions: dose 5-20 µM
[6] = system: RAW264.7; assay: Anti-inflammatory activity in LPS-stimulated mouse RAW264.7 cells assessed as decrease in p65 level in nucleus at 5 to 20 uM preincubated for 24 hrs followed by LPS treatment for 30 mins by Western blot analysis; format: functional, cell-based; conditions: dose 5-20 µM, time 24.5 hrs
[7] = system: RAW264.7; assay: Anti-inflammatory activity in mouse RAW264.7 cells assessed as decrease in LPS-induced COX-2 level at 5 to 20 uM incubated for 24 hrs by Western blot analysis; format: functional, cell-based; conditions: dose 5-20 µM
[8] = system: RAW264.7; assay: Anti-inflammatory activity in LPS-stimulated mouse RAW264.7 cells assessed as increase in I-kappa-B-alpha level at 5 to 20 uM preincubated for 24 hrs followed by LPS treatment for 30 mins by Western blot analysis; format: functional, cell-based; conditions: dose 5-20 µM, time 24.5 hrs
[9] = system: RAW264.7; assay: Anti-inflammatory activity in mouse RAW264.7 cells assessed as decrease in LPS-induced IL-6 level incubated for 24 hrs by ELISA; format: functional, cell-based; conditions: dose 5-20 µM
[10] = system: RAW264.7; assay: Anti-inflammatory activity in mouse RAW264.7 cells assessed as decrease in LPS-induced Akt phosphorylation at 5 to 20 uM preincubated for 24 hrs followed by LPS treatment for 30 mins by Western blot analysis; format: functional, cell-based; conditions: dose 5-20 µM, time 24.5 hrs
[11] = system: Mus musculus; assay: Anti-inflammatory activity in endotoxemia ICR mouse model assessed as decrease in LPS-induced serum IL-1beta level at 10 to 20 mg/kg, IG for 7 days consecutively followed by LPS treatment measured after 24 hrs by ELISA; format: functional, organism-based; conditions: dose 10-20 mg/kg, time 8.0 day
[12] = system: RAW264.7; assay: Anti-inflammatory activity in mouse RAW264.7 cells assessed as decrease in LPS-induced IL-1beta level incubated for 24 hrs by ELISA; format: functional, cell-based; conditions: dose 5-20 µM
[13] = system: Mus musculus; assay: Anti-inflammatory activity in endotoxemia ICR mouse model assessed as decrease in LPS-induced serum TNF-alpha level at 10 to 20 mg/kg, IG for 7 days consecutively followed by LPS treatment measured after 24 hrs by ELISA; format: functional, organism-based; conditions: dose 10-20 mg/kg, time 8.0 day
[14] = system: RAW264.7; assay: Anti-inflammatory activity in mouse RAW264.7 cells assessed as decrease in LPS-induced IL-1beta mRNA level incubated for 24 hrs by RT-PCR analysis; format: functional, cell-based; conditions: dose 5-20 µM
[15] = system: RAW264.7; assay: Effect on total p65 level in cytoplasm of LPS-stimulated mouse RAW264.7 cells at 5 to 20 uM preincubated for 24 hrs followed by LPS treatment for 30 mins by Western blot analysis; format: functional, cell-based; conditions: dose 5-20 µM, time 24.5 hrs
[16] = system: RAW264.7; assay: Anti-inflammatory activity in mouse RAW264.7 cells assessed as decrease in LPS-induced iNOS level at 5 to 20 uM incubated for 24 hrs by Western blot analysis; format: functional, cell-based; conditions: dose 5-20 µM
[17] = system: RAW264.7; assay: Anti-inflammatory activity in mouse RAW264.7 cells assessed as decrease in LPS-induced p38 phosphorylation at 5 to 20 uM incubated for 24 hrs by Western blot analysis; format: functional, cell-based; conditions: dose 5-20 µM
[18] = system: RAW264.7; assay: Anti-inflammatory activity in mouse RAW264.7 cells assessed as decrease in LPS-induced IL-6 mRNA level incubated for 24 hrs by RT-PCR analysis; format: functional, cell-based; conditions: dose 5-20 µM
[19] = system: Mus musculus; assay: Anti-inflammatory activity in endotoxemia ICR mouse model assessed as decrease in LPS-induced serum IL-6 level at 10 to 20 mg/kg, IG for 7 days consecutively followed by LPS treatment measured after 24 hrs by ELISA; format: functional, organism-based; conditions: dose 10-20 mg/kg, time 8.0 day
[20] = system: RAW264.7; assay: Anti-inflammatory activity in mouse RAW264.7 cells assessed as decrease in LPS-induced COX-2 mRNA level incubated for 24 hrs by RT-PCR analysis; format: functional, cell-based; conditions: dose 5-20 µM
[21] = system: RAW264.7; assay: Anti-inflammatory activity in mouse RAW264.7 cells assessed as decrease in LPS-induced PGE2 level incubated for 24 hrs by ELISA; format: functional, cell-based; conditions: dose 5-20 µM
[22] = system: RAW264.7; assay: Anti-inflammatory activity in mouse RAW264.7 cells assessed as inhibition of LPS-induced NO production at 10 uM incubated for 24 hrs relative to control; format: functional

IC50 ([4]; RAW264.7, 24 h): 7.7 µM
SMILES: Cc1ccc(/C=C/C(=O)N2CCN(C(=O)CC[C@@H](C)[C@H]3CC[C@H]4[C@@H]5[C@@H](O)C[C@@H]6C[C@H](O)CC[C@]6(C)[C@H]5CC[C@]34C)CC2)cc1
Activity [1]: Active
Activity [2]: Non-Toxic
Activity [3]: Dose-Dependent Effect
inhibition ([4]; dose 1.25-20 µM): Dose-Dependent Effect
Activity [5]: Active
Activity [6]: Active
Activity [7]: Active
Activity [8]: Active
Activity [9]: Dose-Dependent Effect
Activity [10]: Active
Activity [11]: Active
Activity [12]: Dose-Dependent Effect
Activity [13]: Active
Activity [14]: Dose-Dependent Effect
Activity [15]: inactive
Activity [16]: Active
Activity [17]: Active
Activity [18]: Dose-Dependent Effect
Activity [19]: Active
Activity [20]: Dose-Dependent Effect
Activity [21]: Dose-Dependent Effect
inhibition at 10 µM [22]: > 50%
